Counter-ions that a name gives are not always drawn. One block for each compound: values may come before it.
Key:
[1] = system: cultured human mast cells (CHMC); assay: CHMC low cell density ionomycin activation: tryptase assay; format: cell-based; conditions: read-out: LD Tryptase, CHMC, Iono, 3 pt
[2] = system: cultured human mast cells (CHMC); assay: CHMC low cell density IgE activation: tryptase assay; format: cell-based; conditions: IgE activation
Method in brief: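 Anti-IgE-driven degranulation of cultured human mast cells at low density, 1000–1500 cells/well, was induced over 30 min at 37 °C. It was scored by supernatant tryptase activity on a fluorogenic substrate.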

[3] = low cell density, 3 pt, read-out: LD Tryptase, CHMC, IgE, 3 pt
[4] = low cell density CHMC, tryptase release, 3 point, read-out: LD Tryptase, CHMC, IgE, 3 pt
[5] = low cell density CHMC, tryptase, 3 pt
[6] = low cell density CHMC, tryptase, 3 pt, read-out: LD Tryptase, CHMC, IgE, 3 pt
[7] = low cell density CHMC, tryptase, 8 pt, read-out: LD Tryptase, CHMC, IgE, 8 pt
[8] = Homo sapiens, Mast cell, low cell density CHMC, tryptase release, 3 pt
[9] = Homo sapiens, Mast cell, low cell density CHMC, tryptase release, 3 pt, read-out: LD Tryptase, CHMC, IgE, 3 pt
[10] = Homo sapiens, Mast cell, low cell density CHMC, tryptase release, 8 pt, read-out: LD Tryptase, CHMC, IgE, 8 pt
[11] = low cell density CHMC, tryptase release, 3 pt
[12] = low cell density CHMC, tryptase release, 3 pt, read-out: LD Tryptase, CHMC, IgE, 3 pt
[13] = low cell density CHMC, tryptase release, 8 pt, read-out: LD Tryptase, CHMC, IgE, 8 pt
[14] = low cell density, 8 pt, read-out: LD Tryptase, CHMC, IgE, 8 pt

Compound: 2-Chloro-N4-[3-chloro-4- (N-methylamino)carbonylmethyleneoxyphenyl]-5-fluoro-N4-methyl-4-pyrimidineamine [Compound 661]
IC50 ([1]; low cell density CHMC, tryptase release, 3 point): > 10 µM
IC50 [2, 4]: > 10 µM

Compound: CNC(=O)CNC(=O)c1ccc(Nc2ncc(F)c(Nc3ccc4c(c3)C(NC(=O)OC(C)(C)C)CCO4)n2)cc1 (racemic) [Compound 1298, (R,S)-N4-[4-(N-tert-Butoxycarbonyl)amino-3,4-dihydro-2H-1-benzopyran-6-yl]-5-fluoro-N2-[4-[N-(N-methylamino)carbonylmethylene]aminocarbonylphenyl]-2,4-pyrimidinediamine]
IC50 [1, 5]: > 10 µM
IC50 [2, 6]: < 10 µM

Compound: CNC(=O)COc1cccc(Nc2ncc(F)c(Nc3ccc4c(n3)NC(=O)C(C)(C)O4)n2)c1 [Compound 992, N4-(2,2-Dimethyl-3-oxo-4H-5-pyrid[1,4]oxazin-6-yl)-5-fluoro-N2-[3-(N-methylamino)carbonylmethyleneoxyphenyl]-2,4-pyrimidinediamine (+)-Camphorsulfonic Acid Salt]
IC50 ([1]; low cell density, 3 pt): > 10 µM

Compound: N2-[3,5-Bis (hydroxymethylene)phenyl]-N4- (3,4-dichlorophenyl)-5-fluoro-2,4-pyrimidinediamine [Compound 346]
IC50 [2, 7]: < 10 µM

Compound: N2-[3,5-Bis (hydroxymethylene)phenyl]-N4- (3,4-ethylenedioxyphenyl)-5-fluoro-2,4-pyrimidinediamine [Compound 342]
IC50 [2, 7]: < 10 µM

Compound: N2-[3,5-Bis (hydroxymethylene)phenyl]-N4- (3-chloro-4-methoxyphenyl)-5-fluoro-2,4-pyrimidinediamine [Compound 345]
IC50 [2, 7]: < 10 µM

Compound: N4- (2,2-Dimethyl-3-oxo-4H-5-pyrid[1,4]oxazin-6-yl)-5-fluoro-N2- (3-methoxycarbonylppyrid-2yl)-2,4-pyrimidinediamine [Compound 1314]
IC50 [2, 6]: < 10 µM

Compound: N4- (2,2-Dimethyl-3-oxo-4H-5-pyrid[1,4]oxazin-6-yl)-5-fluoro-N2- (4-methoxycarbonylphenyl)-2,4-pyrimidinediamine [Compound 1313]
IC50 [2, 6]: < 10 µM

Compound: N4- (2,2-Dimethyl-3-oxo-4H-5-pyrid[1,4]oxazin-6-yl)-5-fluoro-[1-(2-hydroxymethyl)-2-trifluoromethylbenzimidazol-5-yl]-2,4-pyrimidinediamine [Compound 924]
IC50 [2, 14]: < 10 µM

Compound: N4- (2,2-Dimethyl-3-oxo-4H-5-pyrid[1,4]oxazin-6-yl)-N2- (1-methyl-2-trifluoromethylbenzimidazol-5-yl)-2,4-pyrimidinediamine [Compound 915]
IC50 [2, 14]: < 10 µM

Compound: N4- (2,2-Dimethyl-3-oxo-4H-N4-oxo-5-pyrido[1,4]oxazin-6-yl)-5-fluoro-N2- (3,4,5-trimethoxyphenyl)-2,4-pyrimidinediamine [Compound 1340]
IC50 [2, 6]: < 10 µM
IC50 [2, 7]: < 10 µM

Compound: N4- (2,2-Dimethyl-3-oxo-4H-benz[1,4]oxazin-6-yl)-5-fluoro-N2-{1-methyl-2-[ (methylsulfonyl)methyl]benzimidazol-5-yl}-2,4-pyrimidinediamine [Compound 967]
IC50 [2, 3]: < 10 µM
IC50 [2, 14]: < 10 µM

Compound: N4- (2,2-Dimethyl-3-oxo-4H-benz[1,4]oxazin-6-yl)-5-fluoro-[1-(2-hydroxymethyl)-2-trifluoromethylbenzimidazol-5-yl]-2,4-pyrimidinediamine [Compound 922]
IC50 [2, 14]: < 10 µM

Compound: N4- (3,4-Dichlorophenyl)-5-fluoro-N2-[2- (4-morpholinomethyl)-1H-benzimidazol-5-yl]-2,4-pyrimidinediamine [Compound 959]
IC50 [2, 14]: < 10 µM

Compound: N4- (3,4-Dichlorophenyl)-5-fluoro-[1- (2-hydroxymethyl)-2-trifluoromethylbenzimidazol-5-yl]-2,4-pyrimidinediamine [Compound 920]
IC50 [2, 3]: < 10 µM
IC50 [2, 14]: < 10 µM

Compound: N4- (3,4-Ethylenedioxyphenyl)-5-fluoro-N2-[3,4-(tetrafluoroethylenedioxy)phenyl]-2,4-pyrimidinediamine [Compound 363]
IC50 [2, 6]: < 10 µM

Compound: N4- (3-Chloro-4-methoxyphenyl)-5-fluoro-[1- (2-hydroxymethyl)-2-trifluoromethylbenzimidazol-5-yl]-2,4-pyrimidinediamine [Compound 921]
IC50 [2, 3]: < 10 µM
IC50 [2, 14]: < 10 µM

Compound: N4- (5-Amino-1,2,4-triazol-3-yl)-5-fluoro-N2-[3- (N-methylamino)carbonylmethyleneoxyphenyl]-2,4-pyrimidinediamine [Compound 1251]
IC50 [2, 7]: < 10 µM

Compound: N4-[3,4- (Difluoromethylenedioxy)phenyl]-5-fluoro-N2- (3,4,5-trimethoxyphenyl)-2,4-pyrimidinediamine [Compound 561]
IC50 [2, 14]: < 10 µM

Compound: N4-[3,4- (Difluoromethylenedioxy)phenyl]-5-fluoro-N2-[2- (N-methylamino)carbonylindol-7-yl]-2,4-pyrimidinediamine [Compound 570]
IC50 [2, 4]: < 10 µM

Compound: N4-[3,4- (Difluoromethylenedioxy)phenyl]-N2- (3,5-dimethoxyphenyl)-5-fluoro-2,4-pyrimidinediamine [Compound 562]
IC50 [2, 3]: < 10 µM
IC50 [2, 14]: < 10 µM

Compound: N4-[3,4- (Difluoromethylenedioxy)phenyl]-N2- (3,5-dimethylphenyl)-5-fluoro-2,4-pyrimidinediamine [Compound 563]
IC50 [2, 3]: < 10 µM
IC50 [2, 14]: < 10 µM

Next, values leading:

IC50 ([1]; low cell density, 3 pt): > 10 µM
IC50 [2, 3]: > 10 µM
Compound: 2-Chloro-N4- (3,5-dichloro-4-methoxyphenyl-5-fluoro-N4-methyl-4-pyrimidineamine [Compound 491]

IC50 [1, 5]: > 10 µM
IC50 [2, 6]: < 10 µM
IC50 [2, 7]: < 10 µM
Compound: 5-Fluoro-N4- (4-hydroxy-3,4-dihydro-2H-1-benzopyran-6-yl)-N2-[4- (oxazol-5-yl)phenyl]-2,4-pyrimidinediamine [Compound 1290]

IC50 [1, 5]: > 10 µM
IC50 [2, 6]: < 10 µM
IC50 [2, 7]: < 10 µM
Compound: NC1CCOc2ccc(Nc3nc(Nc4cccc(-c5cnco5)c4)ncc3F)cc21 (racemic) [Compound 1292, (R,S)-N4-[4-Amino-3,4-dihydro-2H-1-benzopyran-6-yl]-5-fluoro-N2-[3-(oxazol-5-yl)phenyl]-2,4-pyrimidinediamine]

IC50 [1, 8]: > 10 µM
IC50 [2, 9]: < 10 µM
IC50 [2, 10]: < 10 µM
Compound: COc1cc(C)c(Nc2ncc(F)c(Nc3ccc4c(c3)NC(=O)[C@H](C)O4)n2)cc1Cl [Compound 214]

IC50 [1, 8]: > 10 µM
IC50 [2, 9]: < 10 µM
IC50 [2, 10]: < 10 µM
Compound: COc1cc(OC)c(-c2nc(N)nc(Nc3ccc4c(c3)NC(=O)[C@H](C)O4)c2F)cc1Cl [Compound 215]

IC50 [1, 11]: > 10 µM
IC50 [2, 12]: < 10 µM
IC50 [2, 13]: < 10 µM
Compound: COc1cc(C)c(Nc2ncc(F)c(Nc3ccc4c(c3)NC(C)(C)CO4)n2)cc1Cl [Compound 216, N2-(3-Chloro-4-methoxy-6-methylphenyl)-N4-(3,4-dihydro-3,3-dimethyl-2H,4H-benz[1,4]oxazin-6-yl)-5-fluoro-2,4-pyrimidinediamine]

IC50 [1, 11]: > 10 µM
IC50 [2, 12]: < 10 µM
IC50 [2, 13]: < 10 µM
Compound: Fc1cnc(Nc2cccc(-c3ncco3)c2)nc1Nc1ccc2c(c1)NCCO2 [Compound 217, N4-(3,4-Dihydro-2H,4H-benz[1,4]oxazin-6-yl)-5-fluoro-N2-[3-(oxazol-2-yl)phenyl]-2,4-pyrimidinediamine]

IC50 [1, 11]: > 10 µM
IC50 [2, 12]: < 10 µM
IC50 [2, 13]: < 10 µM
Compound: CC1(C)COc2ccc(Nc3nc(Nc4cccc(-c5ncco5)c4)ncc3F)cc2N1 [Compound 218, N4-(3,4-Dihydro-3,3-dimethyl-2H,4H-benz[1,4]oxazin-6-yl)-5-fluoro-N2-[3-(oxazol-2-yl)phenyl]-2,4-pyrimidinediamine]

IC50 [1, 8]: > 10 µM
IC50 [2, 9]: < 10 µM
IC50 [2, 10]: < 10 µM
Compound: O=C1COc2ccc(Nc3nc(Nc4cccc(-c5ncco5)c4)ncc3F)cc2N1 [Compound 219]

IC50 [1, 8]: > 10 µM
IC50 [2, 9]: < 10 µM
IC50 [2, 10]: < 10 µM
Compound: O=C1COc2cc(Nc3nc(Nc4cccc(-c5ncco5)c4)ncc3F)ccc2N1 [Compound 220]

IC50 [1, 8]: > 10 µM
IC50 [2, 9]: < 10 µM
IC50 [2, 10]: < 10 µM
Compound: O=C1Nc2cc(Nc3nc(Nc4cccc(-c5ncco5)c4)ncc3F)ccc2OC1CCO (centres unmarked) [Compound 221]

IC50 [2, 6]: < 10 µM
Compound: N4- (3,4-Dichlorophenyl)-5-fluoro-N2- (4-[N-[methoxycarbonylmethylene]aminocarbonyl]phenyl)-N4-methyl-2,4-pyrimidinediamine [Compound 1348]

IC50 [2, 6]: < 10 µM
IC50 [2, 7]: < 10 µM
Compound: N4- (Aminocarbonylphenyl)-5-fluoro-N2- (4-[N-[methoxycarbonylmethylene]aminocarbonyl]phenyl)-2,4-pyrimidinediamine [Compound 1338]

IC50 [2, 6]: < 10 µM
IC50 [2, 7]: < 10 µM
Compound: N4- (Cyclopentyl)-5-fluoro-N2- (4-[N-[methoxycarbonylmethylene]aminocarbonyl]phenyl)-2,4-pyrimidinediamine [Compound 1351]

IC50 [2, 12]: < 10 µM
Compound: N4-[benzoxathiazin-3 (4H)-one-6-yl]2-chloro-5-fluoro-4-pyrimidineamine [Compound 319]
